Experimental findings from US10302631B2, “Genetically encoded probe for quantification of pyruvate concentration and methods of using the same” (CENTRO DE ESTUDIOS CLENTIFICOS DE VALDIVIA, priority 2013, dated 2019) are described below.

The subject of one experiment is HEK293 cells. As to the kind of experiment: Rate of cellular pyruvate production after MCT blockage. The experiment is classed as cell-based. As for the experimental part: In this second embodiment cells are incubated under physiological concentrations of glucose, lactate and pyruvate, and with the information obtained in the calibration step and the known sensitivity of surface pyruvate transporters to specific inhibitors, the steady-state of pyruvate is acutely disrupted by blocking the function of pyruvate transporter, for example by addition of a pharmacological blocker of the pyruvate transporter. In mammalian cells, the pyruvate transporter is the MCT and can be blocked with phloretin, parachloromercurybenzoate, AR-C155858, anti-MCT antisera, or other suitable compounds. […] If the cell is a net pyruvate importer, application of the MCT-blocker causes a fall in intracellular pyruvate concentration, the initial rate of which is equal to the rate of pyruvate consumption on the steady-state. […] A critical property of this sensor is that has a single component of binding so that it allows accurate quantitation of these rates. […]
Fluorescence Measurements. Nickel-purified proteins were resuspended at 100 nM in an intracellular buffer containing (mM): 10 NaCl, 130 KCl, 1.25 MgSO4 and 10 HEPES, pH 7.0, and measured with a microplate reader analyzer (EnVision, PerkinElmer). The proteins were excited at 430 nm and the intensity of fluorescence emission of mTFP and Venus were recorded at 485 nm (FmTFP) and 528 nm (FVenus), respectively. […]

In experiment [1] the test system is mitochondrial pyruvate consumption in HEK293 cells. Briefly: Rate of mitochondrial pyruvate consumption, pyruvate as exclusive substrate, after MCT blockage. The experiment is classed as cell-based.
Experiment [2] deals with monocarboxylate transporter (MCT). Briefly: Initial rate of uptake of 1 mM pyruvate measured with the sensor, inhibition by MCT blockers. The experiment is classed as cell-based, mice. As to conditions: astrocytic uptake. As for the experimental part: In this first embodiment, with the information obtained in the calibration step, the disruption of the steady-state of pyruvate entering the cell is carried out by altering the extracellular concentration of pyruvate, thus exposing the cells to pyruvate. This causes a rise in intracellular pyruvate that is monitored with the pyruvate sensor and whose initial rate is independent of pyruvate metabolism and can be used to estimate kinetic parameters (FIG. 18). Exposure of the cells to increasing concentrations of pyruvate allows the estimation of kinetic parameters for the pyruvate transporter. Kinetic parameters are also obtained from the decrease in intracellular pyruvate after removal of extracellular pyruvate. The identity of the transport pathway for pyruvate can be determined by the use of pharmacological blockers of specific transporter proteins, such as phloretin or AR-C155858 (FIG. 18 and FIG. 19), or other such as parachloromercurybenzoate, anti-MCT antisera, etc., or with compounds that interfere with the expression of specific transporter proteins, such as shRNA or siRNA, or by other similar means.
Animals and Cell Cultures. […]
Fluorescence Measurements. Nickel-purified proteins were resuspended at 100 nM in an intracellular buffer containing (mM): 10 NaCl, 130 KCl, 1.25 MgSO4 and 10 HEPES, pH 7.0, and measured with a microplate reader analyzer (EnVision, PerkinElmer). […]

Another experiment has as its system Pyronic. Briefly: Specificity: effect of a panel of metabolites on the purified sensor and on its response to pyruvate. Format: biochemical, Escherichia coli. The protocol:
The specificity was investigated by exposing the sensor to high concentrations of a panel of metabolites of natural occurrence (FIG. 9). From the chosen set of molecules, citrate and oxalacetate produced a modest effect at 1 mM, and a very small at 100 μM Oxalacetate levels are in the low micromolar range and should not affect the pyruvate sensor, and cytosolic citrate levels are below 100 μM (Siess et al., 1978; Kauppinen et al., 1982), and therefore should have a negligible effect on the pyruvate sensor. Further to explore the specificity, the effect of a panel of metabolites on the response of the sensor to pyruvate was explored (FIGS. 10, 11 and 12). […] The response of the sensor to pyruvate was insensitive to the extreme values of the redox ratio, achieved by manipulating NAD^+ and NADH (FIG. 13).
Fluorescence Measurements. Nickel-purified proteins were resuspended at 100 nM in an intracellular buffer containing (mM): 10 NaCl, 130 KCl, 1.25 MgSO4 and 10 HEPES, pH 7.0, and measured with a microplate reader analyzer (EnVision, PerkinElmer). The proteins were excited at 430 nm and the intensity of fluorescence emission of mTFP and Venus were recorded at 485 nm (FmTFP) and 528 nm (FVenus), respectively. The ratio (R) between FmTFP and FVenus was used to characterize the sensors. Emission spectra were obtained at 430 nm excitation, with 2 nm windows. Cells were imaged at room temperature (22-25° C.) in a 95% air/5% CO2-gassed solution of the following composition (in mM): 112 NaCl, 1.25 CaCl2, 1.25 MgSO4, 1-2 glucose, 10 HEPES, 24 NaHCO^3, pH 7.4, with 3 mM KCl (astrocytes) or 5 mM KCl (HEK and T98G) using an upright Olympus FV1000 Confocal Microscope equipped with a 20× water immersion objective (N.A. 1.0) and a 440 nm solid-state laser. Alternatively, cells were imaged with an Olympus IX70 or with an Olympus BX51 microscope equipped with a 40× oil-immersion objective (NA 1.3) or with a 20× water-immersion objective (NA 0.95). Microscopes were equipped with CAIRN monochromators (Faversham, UK), and either a Hamamatsu Orca camera controlled by Kinetics software or a Rollera camera controlled with Metafluor software, respectively. For sensor ratio measurements, cells were excited at 430 nm for 0.2-0.8 s. Emission was divided with a CAIRN Optosplit, equipped with band pass filters at 480±20 (FmTFP) and 535±15 nm (FVenus). The ratio between FmTFP and FVenus was used to measure pyruvate.

On to `Cc1n[nH]c(C)c1Cc1sc2c(c1C(=O)N1C[C@H](O)CO1)c(=O)n(C)c(=O)n2CC(C)C` [AR-C155858], for which the “change in intracellular pyruvate after MCT blockage” value in the experiment with HEK293 cells (HEK293 cells, blocker at 1 μM) is listed as “increase in intracellular pyruvate”. For the same compound, the “rate of accumulation of intracellular pyruvate after MCT blockage” value with HEK293 cells (single HEK293 cell) amounted to 0.72 µM/s. In addition, in experiment [1] (cells deprived of glucose, high extracellular pyruvate), the “change in cytosolic pyruvate concentration after MCT blockage” value is “fall in the cytosolic pyruvate concentration”. For the same compound, the “rate of decrease in intracellular pyruvate after MCT blockage” value in experiment [1] (single HEK293 cell, pyruvate as exclusive substrate) amounted to 1.73 µM/s. Besides, the “inhibition of initial rate of uptake of 1 mM pyruvate” value in experiment [2] (blocker at 1 μM) is on record as “strongly inhibited”.
For `O=C(O)CC(O)(CC(=O)O)C(=O)O` [citrate], the “effect on the fluorescence ratio of the sensor” value with Pyronic (metabolite at 100 μM) was “very small”; in the experiment with Pyronic (metabolite at 1 mM), “modest effect”. Besides, the “effect on the response of the sensor to pyruvate” value in the experiment with Pyronic (metabolite at 100 μM) was “very small effect”; with Pyronic (metabolite at 1 mM), “significant effect”.
In the case of `O=C(O)CC(=O)C(=O)O` [oxalacetate], the “effect on the fluorescence ratio of the sensor” value is recorded as “very small” with Pyronic (metabolite at 100 μM) and “modest effect” in the experiment on Pyronic (metabolite at 1 mM).
For `O=C(CCc1ccc(O)cc1)c1c(O)cc(O)cc1O` [phloretin], the “inhibition of initial rate of uptake of 1 mM pyruvate” value in experiment [2] (blocker at 50 μM) is “strongly inhibited”.
